Results as given in patent US12331040B2 (Karyopharm Therapeutics Inc., priority 2013, dated 2025).

What was measured:
Experiment in all cases: MTT cell proliferation assay
Type in all cases: cell-based
[1] = test system: 3T3 cells; settings: Mus musculus, NIH3T3, approximately 64-72 hours incubation, read-out: MTT Assay IC50, 3T3
Summary of the method: (§1)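 Cytotoxicity was measured by MTT: OD490 of the solubilized formazan after roughly 4 h with MTT reagent, reported as mean percent inhibition relative to the negative control. Test compounds covered eight concentrations between 1 nM and 30 μM, added to 5,000–10,000 cells per well that had attached overnight.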

[2] = test system: Z138 cells; settings: Homo sapiens, Z-138, Z138 cells; approximately 64-72 hours incubation; read-out: MTT Assay IC50, Z-138
Summary of the method: as §1

[3] = test system: MS751 cells; settings: Homo sapiens, MS751, MS751 cells; approximately 64-72 hours incubation; read-out: MTT Assay IC50, MS-751
Summary of the method: as §1

Q: How did the IC50 [1] turn out when Nc1ccc(/C=C/C(=O)NCc2cc3cc(-c4ccc(C(=O)N5CCC(F)(F)CC5)cn4)c(C(F)(F)F)cc3o2)cn1 [Compound 664, (E)-3-(6-aminopyridin-3-yl)-N-((5-(5-(4,4-difluoropiperidine-1-carbonyl)pyridin-2-yl)-6-(trifluoromethyl)benzofuran-2-yl)methyl)acrylamide] was run?
A: > 10000 nM

Q: What about the IC50 [2] of the same compound?
A: > 10000 nM

Q: And the IC50 [3]?
A: > 10000 nM

Q: Nc1ccc(/C=C/C(=O)NCc2cc3cc(-c4ccc(C(=O)N5CCC(F)(F)CC5)cn4)cc(-c4ccc(F)cc4)c3o2)cn1 [Compound 665, (E)-3-(6-aminopyridin-3-yl)-N-((5-(5-(4,4-difluoropiperidine-1-carbonyl)pyridin-2-yl)-7-(4-fluorophenyl)benzofuran-2-yl)methyl)acrylamide] was tested. Which IC50 [1] did it give?
A: 100 to 5000 nM

Q: What about the IC50 [2] of the same compound?
A: < 100 nM

Q: And the IC50 [3]?
A: < 100 nM

Q: How did the IC50 [1] turn out when Nc1ccc(/C=C/C(=O)NCc2cc3cc(-c4ccc(C(=O)N5CCC(F)(F)CC5)cn4)cc(-c4ccncc4)c3o2)cn1 [Compound 666, (E)-3-(6-aminopyridin-3-yl)-N-((5-(5-(4,4-difluoropiperidine-1-carbonyl)pyridin-2-yl)-7-(pyridin-4-yl)benzofuran-2-yl)methyl)acrylamide] was run?
A: 100 to 5000 nM

Q: And the IC50 [2]?
A: < 100 nM

Q: And the IC50 [3]?
A: < 100 nM

Q: How did the IC50 [1] turn out when Nc1ccc(/C=C/C(=O)NCc2cc3cc(-c4ccc(C(=O)N5CCC(F)(F)CC5)cn4)cc(-c4cc5ccccc5o4)c3o2)cn1 [Compound 668, (E)-3-(6-aminopyridin-3-yl)-N-((5′-(5-(4,4-difluoropiperidine-1-carbonyl)pyridin-2-yl)-2,7′-bibenzofuran-2′-yl)methyl)acrylamide] was run?
A: 100 to 5000 nM

Q: What about the IC50 [2] of the same compound?
A: < 100 nM

Q: And the IC50 [3]?
A: < 100 nM

Q: For Nc1ccc(/C=C/C(=O)NCc2cc3cc(-c4ccc(C(=O)N5CCC(F)(F)CC5)cn4)cc(-c4cccnc4)c3o2)cn1 [Compound 669, (E)-3-(6-aminopyridin-3-yl)-N-((5-(5-(4,4-difluoropiperidine-1-carbonyl)pyridin-2-yl)-7-(pyridin-3-yl)benzofuran-2-yl)methyl)acrylamide], which IC50 [1] is on record?
A: 100 to 5000 nM

Q: What about the IC50 [2] of the same compound?
A: < 100 nM

Q: And the IC50 [3]?
A: < 100 nM

Q: Which IC50 [1] does the source give for Nc1cc2ccc(/C=C/C(=O)NCc3cc4cc(-c5ccc(C(=O)N6CCC(F)(F)CC6)cn5)cc(C(F)(F)F)c4o3)cc2cn1 [Compound 670, (E)-3-(3-aminoisoquinolin-7-yl)-N-((5-(5-(4,4-difluoropiperidine-1-carbonyl)pyridin-2-yl)-7-(trifluoromethyl)benzofuran-2-yl)methyl)acrylamide] here?
A: > 10000 nM

Q: And the IC50 [2]?
A: > 10000 nM

Q: And the IC50 [3]?
A: > 10000 nM

Q: Which results are given for O=C(/C=C/c1cccnc1)NCc1cc2cc(-c3ccc(C(=O)N4CCC(F)(F)CC4)cn3)cc(C(F)(F)F)c2o1 [Compound 671, (E)-N-((5-(5-(4,4-difluoropiperidine-1-carbonyl)pyridin-2-yl)-7-(trifluoromethyl)benzofuran-2-yl)methyl)-3-(pyridin-3-yl)acrylamide]?
A: IC50 [1]: 100 to 5000 nM; IC50 [2]: 100 to 5000 nM; IC50 [3]: 100 to 5000 nM

Q: Which IC50 [1] does the source give for Nc1ccc(/C=C/C(=O)NCc2cc3cc(-c4ccc(C(=O)N5CCC(F)(F)CC5)cn4)cc(-c4ccc5cnccc5c4)c3o2)cn1 [Compound 672, (E)-3-(6-aminopyridin-3-yl)-N-((5-(5-(4,4-difluoropiperidine-1-carbonyl)pyridin-2-yl)-7-(isoquinolin-6-yl)benzofuran-2-yl)methyl)acrylamide] here?
A: > 10000 nM

Q: What about the IC50 [2] of the same compound?
A: 100 to 5000 nM

Q: What about the IC50 [3] of the same compound?
A: 100 to 5000 nM

Q: O=C(/C=C/c1cccnc1)NCc1cc2cc(-c3ccc(C(=O)N4CCC(F)(F)CC4)cn3)cc(-c3cccnc3)c2o1 [Compound 673, (E)-N-((5-(5-(4,4-difluoropiperidine-1-carbonyl)pyridin-2-yl)-7-(pyridin-3-yl)benzofuran-2-yl)methyl)-3-(pyridin-3-yl)acrylamide] was tested. Which IC50 [1] did it give?
A: < 100 nM

Q: And the IC50 [2]?
A: < 100 nM

Q: And the IC50 [3]?
A: < 100 nM

Q: Which IC50 [1] does the source give for O=C(/C=C/c1cccnc1)NCc1cc2cc(-c3ccc(C(=O)N4CCC(F)(F)CC4)cn3)cc(-c3ccncc3)c2o1 [Compound 674] here?
A: < 100 nM

Q: And the IC50 [2]?
A: < 100 nM

Q: What about the IC50 [3] of the same compound?
A: < 100 nM
